Values quoted from earlier work as cited in US20030088889A1, “Enhancing biological activity of plants” (priority 2002, published 2003).

What was measured:
estrogen receptor = target: T1, estrogen receptor (Homo sapiens, UniProt P03372)
T1 sequence (P03372 1-595): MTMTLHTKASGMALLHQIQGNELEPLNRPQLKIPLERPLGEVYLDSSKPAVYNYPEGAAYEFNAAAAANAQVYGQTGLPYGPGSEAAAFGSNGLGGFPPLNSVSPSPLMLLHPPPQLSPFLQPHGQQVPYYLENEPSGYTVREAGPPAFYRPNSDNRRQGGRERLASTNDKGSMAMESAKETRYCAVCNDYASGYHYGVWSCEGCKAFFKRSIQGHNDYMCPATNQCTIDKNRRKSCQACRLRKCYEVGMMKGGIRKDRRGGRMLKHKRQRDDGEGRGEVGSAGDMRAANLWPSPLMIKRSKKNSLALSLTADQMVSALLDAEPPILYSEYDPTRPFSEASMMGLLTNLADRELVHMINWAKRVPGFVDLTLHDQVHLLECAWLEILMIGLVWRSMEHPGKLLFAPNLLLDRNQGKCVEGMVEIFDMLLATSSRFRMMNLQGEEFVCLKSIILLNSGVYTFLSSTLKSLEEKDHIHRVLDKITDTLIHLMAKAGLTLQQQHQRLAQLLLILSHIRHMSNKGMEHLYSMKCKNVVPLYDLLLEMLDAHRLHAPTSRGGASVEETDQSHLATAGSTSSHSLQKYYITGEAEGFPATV

[1] = system: neuronal reuptake of monoamines and amino acids

| affinity to the estrogen receptor (estrogen receptor) | Molecule | inhibition of neuronal reuptake of monoamines and amino acids [1] |
| --- | --- | --- |
| weak affinity | O=c1cc(-c2ccc(O)c(-c3c(O)cc(O)c4c(=O)cc(-c5ccc(O)cc5)oc34)c2)oc2cc(O)cc(O)c12 [biapigenin] |  |
|  | hyperforin | potently inhibit |
